According to ChEMBL document CHEMBL5137070, “N-2-(Phenylamino) Benzamide Derivatives as Dual Inhibitors of COX-2 and Topo I Deter Gastrointestinal Cancers via Targeting Inflammation and Tumor Progression” (J Med Chem, 2022):
Activity calls are given as the source filed them. The calls are words filed in the database; no cut-off is given here.

What was measured:
[1] = biological target: Nuclear factor NF-kappa-B complex (Homo sapiens) (UniProt Q00653+P19838+Q04206); assay: Inhibition of NF-kappaB activation in human RKO cells assessed as downregulation of NF-kappaB phosphorylation at 10 uM for 48 hrs by DAPI staining based immunofluorescence assay; type: cell-based
RAW264.7 [2] = assay: Antiinflammatory activity against LPS-stimulated mouse RAW264.7 cells assessed decrease in IL-1beta release at 1.1 uM incubated for 1 hrs followed by LPS stimulation and measured after 24 hrs by ELISA; type: functional, cell-based; conditions: time 25.0 hrs
RKO [3] = assay: Antiproliferative activity against human RKO cells assessed as reduction in cell proliferation incubated for 48 hrs by MTT assay; type: functional, cell-based
HGC-27 [4] = assay: Induction of apoptosis in human HGC-27 cells assessed as increase in caspase-3 activity at 3.3 uM incubated for 36 hrs by flow cytometry (Rvb= 9.39%); type: functional
RKO [5] = assay: Anti-metastasis activity against human RKO cells assessed as reduction in MMP-9 expression level at 3.3 to 10 uM for 24 hrs by western blot analysis; type: functional, cell-based; conditions: dose 3.3-10 µM
[6] = AUC (0 to t) in Sprague-Dawley rat at 100 mg/kg, ip and measured upto 8 hrs by LC-MS/MS analysis; type: ADME, organism-based; set-up: dose 100 mg/kg, time < 8 hrs, route ip; conditions: in vivo
RKO [7] = assay: Effect on cell morphology in human RKO cells assessed as appearance of round cells at 10 uM incubated for 48 hrs by giemsa staining based microscopic analysis; type: functional
SGC-7901 = assay: Antiproliferative activity against human SGC-7901 cells assessed as reduction in cell proliferation incubated for 48 hrs by MTT assay; type: functional, cell-based; conditions: SGC-7901, 48 h
[8] = Toxicity in BALB/c mouse xenografted with mouse CT26.WT assessed as pathological changes in liver at 100 mg/kg, ip twice daily and measured after 14 days by hematoxylin and eosin staining based microscopic analysis; type: organism-based; conditions: in vivo, 336 h, time 14 day
HGC-27 [9] = assay: Induction of apoptosis in human HGC-27 cells assessed as increase in cytochrome C level at 1.1 to 10 uM incubated for 24 hrs by western blot assay; type: functional, cell-based; conditions: dose 1.1-10 µM
HGC-27 [10] = assay: Effect on cell morphology in human HGC-27 cells assessed as lose of adherence at 10 uM incubated for 48 hrs by giemsa staining based microscopic analysis; type: functional
RKO [11] = assay: Antiproliferative activity against human RKO cells assessed as clone formation at 0.04 to 3.3 uM incubated for 4 days by crystal violet staining based analysis; type: functional, cell-based; conditions: dose 0.04-3.3 µM, time 4.0 day
RAW264.7 [12] = assay: Inhibition of LPS induced NO production in mouse RAW264.7 cells at 1.1 uM incubated for 1 hrs followed by LPS stimulation and measured after 24 hrs by Griess reagent based assay; type: functional, cell-based; conditions: time 25.0 hrs
RKO [13] = assay: Induction of apoptosis in human RKO cells assessed as increase in cleaved caspase-9 expression at 1.1 to 10 uM incubated for 24 hrs by western blot assay; type: functional, cell-based; conditions: dose 1.1-10 µM
HGC-27 [14] = assay: Induction of cell cycle arrest in human HGC-27 cells assessed as accumulation at G2/M phase at 3.3 to 10 uM for 24 hrs by propidium iodide staining based flow cytometry; type: functional; conditions: dose 3.3-10 µM
[15] = Toxicity in BALB/c mouse xenografted with mouse CT26.WT assessed as pathological changes in spleen at 100 mg/kg, ip twice daily and measured after 14 days by hematoxylin and eosin staining based microscopic analysis; type: organism-based; conditions: in vivo, 336 h, time 14 day
HGC-27 [16] = assay: Induction of apoptosis in human HGC-27 cells assessed as increase in caspase-3 activity at 1.1 to 10 uM incubated for 36 hrs by flow cytometry; type: functional, cell-based; conditions: dose 1.1-10 µM, DDE = dose-dependent effect
RAW264.7 [17] = assay: Antiinflammatory activity against LPS-stimulated mouse RAW264.7 cells assessed decrease in IL-1beta release at 6.6 uM incubated for 1 hrs followed by LPS stimulation and measured after 24 hrs by ELISA relative to control; type: functional, cell-based; conditions: time 25.0 hrs
CT26.WT [18] = assay: Anti-tumor activity against mouse CT26.WT xenografted in BALB/c mouse assessed as decrease in MMP-9 expression level in tumor tissue at 100 mg/kg, ip twice daily and measured after 14 days by immunohistochemical analysis; type: functional, organism-based; conditions: time 14.0 day
HGC-27 [19] = assay: Effect on cell morphology in human HGC-27 cells assessed as appearance of smaller cells at 10 uM incubated for 48 hrs by giemsa staining based microscopic analysis; type: functional
CT26.WT [20] = assay: Antiproliferative activity against mouse CT26.WT cells assessed as cell viability at 1.23 uM for 48 hrs by MTT assay; type: functional; conditions: read-out: Activity
HGC-27 [21] = assay: Induction of mitochondrial membrane loss in human HGC-27 at 1.1 to 10 uM and measured after 36 hrs by TMRE dye based flow cytometry; type: functional, cell-based; conditions: dose 1.1-10 µM, DDE = dose-dependent effect
HGC-27 [22] = assay: Induction of pro-apoptosis in human HGC-27 assessed as DNA breakdown by analyzing DNA ladder at 1.1 to 10 uM for 36 hrs by ethidium bromide staining based agarose gel electrophoresis; type: functional, cell-based; conditions: dose 1.1-10 µM
RKO [23] = assay: Effect on cell morphology in human RKO cells assessed as appearance of smaller cells at 10 uM incubated for 48 hrs by giemsa staining based microscopic analysis; type: functional
RKO [24] = assay: Induction of apoptosis in human RKO cells assessed as increase in caspase-3 activity at 10 uM incubated for 36 hrs by flow cytometry (Rvb= 1.08%); type: functional
HGC-27 [25] = assay: Induction of apoptosis in human HGC-27 cells assessed as increase in Bax/Bcl-2 ratio expression at 1.1 to 10 uM incubated for 24 hrs by western blot assay; type: functional, cell-based; conditions: dose 1.1-10 µM
[26] = Acute toxicity in Kunming mouse assessed as behavioral changes at 100 mg/kg,ip and measured upto 14 days; type: organism-based; conditions: in vivo, 336 h, time < 14 day

Sequence of Nuclear factor NF-kappa-B complex (Homo sapiens) (P19838 whole entry, looked up): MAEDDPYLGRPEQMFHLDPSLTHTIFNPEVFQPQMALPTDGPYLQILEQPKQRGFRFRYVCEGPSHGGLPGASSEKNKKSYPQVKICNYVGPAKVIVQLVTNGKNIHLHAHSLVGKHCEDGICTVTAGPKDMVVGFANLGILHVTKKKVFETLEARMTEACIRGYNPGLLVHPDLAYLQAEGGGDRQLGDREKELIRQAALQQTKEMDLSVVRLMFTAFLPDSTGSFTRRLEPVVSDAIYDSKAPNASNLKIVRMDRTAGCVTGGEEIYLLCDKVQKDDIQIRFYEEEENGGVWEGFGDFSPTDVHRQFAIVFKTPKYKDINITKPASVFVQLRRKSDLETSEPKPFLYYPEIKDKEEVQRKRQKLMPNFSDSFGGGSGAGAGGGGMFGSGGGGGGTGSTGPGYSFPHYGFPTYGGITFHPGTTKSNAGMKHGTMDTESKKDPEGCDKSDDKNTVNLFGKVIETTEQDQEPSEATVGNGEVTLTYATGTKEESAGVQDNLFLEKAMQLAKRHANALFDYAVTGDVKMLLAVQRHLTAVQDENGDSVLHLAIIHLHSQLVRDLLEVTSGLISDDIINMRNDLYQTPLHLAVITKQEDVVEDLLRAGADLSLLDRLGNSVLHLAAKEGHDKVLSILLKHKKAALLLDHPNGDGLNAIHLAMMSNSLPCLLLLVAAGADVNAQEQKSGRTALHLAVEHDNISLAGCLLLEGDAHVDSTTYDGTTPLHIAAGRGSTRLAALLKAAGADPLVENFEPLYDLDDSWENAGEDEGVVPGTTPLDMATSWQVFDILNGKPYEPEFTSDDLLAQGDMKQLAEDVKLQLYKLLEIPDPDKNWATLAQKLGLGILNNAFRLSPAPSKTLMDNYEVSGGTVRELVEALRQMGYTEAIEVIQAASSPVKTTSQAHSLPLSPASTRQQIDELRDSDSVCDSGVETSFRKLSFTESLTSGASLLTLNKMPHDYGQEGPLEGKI
Sequence of Nuclear factor NF-kappa-B complex (Homo sapiens) (Q00653 whole entry, looked up): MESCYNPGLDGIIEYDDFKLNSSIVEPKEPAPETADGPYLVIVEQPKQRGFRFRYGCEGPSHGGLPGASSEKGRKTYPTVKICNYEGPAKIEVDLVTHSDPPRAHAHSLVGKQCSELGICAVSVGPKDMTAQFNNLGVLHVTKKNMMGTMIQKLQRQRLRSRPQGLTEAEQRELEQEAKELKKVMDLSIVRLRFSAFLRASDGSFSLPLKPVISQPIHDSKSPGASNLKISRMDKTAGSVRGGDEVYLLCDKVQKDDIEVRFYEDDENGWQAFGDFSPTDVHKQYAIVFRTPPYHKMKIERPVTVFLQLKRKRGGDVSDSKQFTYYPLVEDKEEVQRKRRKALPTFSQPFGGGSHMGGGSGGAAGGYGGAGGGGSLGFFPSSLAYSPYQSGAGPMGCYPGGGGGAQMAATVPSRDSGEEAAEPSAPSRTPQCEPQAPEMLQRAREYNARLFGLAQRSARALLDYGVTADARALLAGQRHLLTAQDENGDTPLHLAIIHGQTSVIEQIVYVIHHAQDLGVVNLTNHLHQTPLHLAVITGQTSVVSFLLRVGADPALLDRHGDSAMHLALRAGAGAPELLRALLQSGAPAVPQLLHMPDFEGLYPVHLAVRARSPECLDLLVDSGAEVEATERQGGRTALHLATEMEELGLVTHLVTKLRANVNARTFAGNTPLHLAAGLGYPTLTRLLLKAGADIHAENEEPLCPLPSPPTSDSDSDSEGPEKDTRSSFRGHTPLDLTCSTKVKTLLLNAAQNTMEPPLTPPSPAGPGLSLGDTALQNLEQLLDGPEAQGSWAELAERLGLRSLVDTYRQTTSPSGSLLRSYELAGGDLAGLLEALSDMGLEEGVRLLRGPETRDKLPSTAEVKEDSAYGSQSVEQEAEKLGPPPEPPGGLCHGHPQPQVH
Sequence of Nuclear factor NF-kappa-B complex (Homo sapiens) (Q04206 whole entry, looked up): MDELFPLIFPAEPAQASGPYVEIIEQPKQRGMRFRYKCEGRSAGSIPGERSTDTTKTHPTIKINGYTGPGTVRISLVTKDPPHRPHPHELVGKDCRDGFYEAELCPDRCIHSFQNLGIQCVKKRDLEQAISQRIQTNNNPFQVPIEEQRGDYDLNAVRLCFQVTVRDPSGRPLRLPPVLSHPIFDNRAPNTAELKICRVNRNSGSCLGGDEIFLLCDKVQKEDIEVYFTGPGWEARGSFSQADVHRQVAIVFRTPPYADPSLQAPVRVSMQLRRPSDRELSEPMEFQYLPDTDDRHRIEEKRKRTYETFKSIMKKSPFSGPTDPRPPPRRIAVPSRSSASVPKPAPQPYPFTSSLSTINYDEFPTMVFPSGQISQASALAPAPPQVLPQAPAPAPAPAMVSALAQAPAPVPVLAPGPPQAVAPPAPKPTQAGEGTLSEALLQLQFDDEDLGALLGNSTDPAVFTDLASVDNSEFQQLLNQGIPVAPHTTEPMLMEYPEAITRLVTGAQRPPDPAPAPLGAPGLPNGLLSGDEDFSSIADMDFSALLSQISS

Cc1c(Cl)cccc1Nc1ccc(F)cc1C(=O)NCc1ccc(O)c(O)c1
inhibition [1]: Active
Activity (RAW264.7 [2]): Active
IC50 (RKO [3]): 3.12 µM
Activity (HGC-27 [4]): 68.8%
Activity (RKO [5]): Active
AUC(0-t) at 8 h [6]: 18200 ng·h/mL
Activity (RKO [7]): Active
IC50 (SGC-7901): 15 µM
Activity [8]: Non-Toxic
Activity (HGC-27 [9]): Active
Activity (HGC-27 [10]): Active
Activity (RKO [11]): Active
inhibition (RAW264.7 [12]): Active
Activity (RKO [13]): Active
Activity (HGC-27 [14]): Active
Activity [15]: Non-Toxic
Activity (HGC-27 [16]): Dde
Activity (RAW264.7 [17]): Active
Activity (CT26.WT [18]): Active
Activity (HGC-27 [19]): Active
viability at 1.23 µM (CT26.WT [20]): > 80%
Activity (HGC-27 [21]): Dde
Activity (HGC-27 [22]): Active
Activity (RKO [23]): Active
Activity (RKO [24]): 55.94%
Activity (HGC-27 [25]): Active
Activity [26]: Non-Toxic
